# Patent publication US20250170090A1, “METHOD FOR PREVENTING OR TREATING DISEASE OR DISORDER ASSOCIATED WITH ANTINEOPLASTIC AGENT” (ONQUALITY PHARMACEUTICALS CHINA LTD., priority 2022, published 2025)
# Like-named read-outs stand apart in the source and are kept apart here.
# Assays:
# [1] = tested on: hand-foot syndrome induced by anti-tumor agents; experiment: Prevention of hand-foot syndrome induced by anti-tumor agents in rats, NO-NSAID ointment on hind paws (Table 2-2); assay type: in vivo, SD rats; settings: Rattus norvegicus, topical, read-out: Control rate; for responders at 0.5 %: ointment 0.50% wt; for responders at 1 %: ointment 1% wt; for responders at 2.5 %: ointment 2.50% wt; for responders at 5 %: ointment 5% wt
# Description: A rat animal model was constructed, and the anti-tumor agents shown in Table 2-2 were respectively administered to 8-week-old female SD rats by daily oral gavage. […] Therefore, rats serve as an excellent animal model for simulating side effects (such as hand-foot syndrome) caused by anti-tumor agents.
# After the rats (about 200 g) were fed and adapted for one week, they were divided into a NO-NSAID group and a control group, with 10 rats in each group, and a gavage administration test was conducted. The various anti-tumor agents were dissolve in a mixed solution of Cremophor EL:ethanol=1:1. The anti-tumor agent solution were diluted with PBS to the required concentration (about 3 times with PBS solution) before gavage administration. After gavage, an ointment containing NO-NSAID was applied to the hind paws of the rats, while the control group was applied with a blank ointment. After application, the rats were placed in a fixed cylinder for 4 hours. After 4 hours, the rats were released and the residual ointment was wiped off with clean water, then the rats were returned to the cage. The gavage frequency of inhibitors was shown in Table 2-2, and NO-NSAID was only applied once a day. The gavage and application operations were repeated daily until the end of the experiment.
# Table 2-2 lists the animal experimental combinations of various anti-tumor agents and NO-NSAID ointments, as well as the corresponding experimental results (wherein the value in the control rate column=the hand-foot syndrome incidence rate in the blank group−the hand-foot syndrome incidence rate in the treatment group).
# [2] = tested on: HUVEC cells; experiment: CCK-8 cell viability: alleviation of proliferative toxicity of anti-tumor agents on HUVEC cells (Tables 7-1, 7-2); assay type: cell-based; settings: for activation at 100 µM: Homo sapiens, 24 h, percentage increase in viable cells vs anti-tumor agent alone, read-out: Response rate % (average)
# Method: The cultured HUVEC cells were digested the suspended, counted, and seed into a 96-well plate with 5,000-10,000 cells per well. The wells are divided into the following groups: blank control group, anti-tumor agent group, anti-tumor agent+NO-NSAID group, anti-tumor agent solvent group, NO-NSAID control group. Wherein each well of each group contained a basic medium, and the final liquid volume contained in each well was about 100 μL. The grouping situation was as follows: • 1) Blank control group: no solution was added except normally replacing the medium; • 2) Anti-tumor agent group: added the anti-tumor agent solution (the final concentration was shown in Table 7-1 and Table 7-2, the solvent of the anti-tumor agent solution was DMSO); • 3) Anti-tumor agent+NO-NSAID group: added the anti-tumor agent solution and the NO-NSAID solution (the final concentrations of anti-tumor agent and NO-NSAID were shown in Table 7-1 and Table 7-2, and according to the solubility of NO-NSAID, the solvent of NO-NSAID solution was selected as ethanol or sterile water, and minor volume differences in each group were adjusted by added the corresponding solvent); • 4) Anti-tumor agent solvent group: an equal volume of DMSO as contained in the corresponding anti-tumor agent solution in Group 2) was added; • 5) NO-NSAID control group: the same volume and type of solvent (for example, ethanol or sterile water) corresponding to the NO-NSAID contained in group 3) was added.
# The anti-tumor agent solvent group was not involved in data processing and was only used as a reference for evaluating experimental system error. The NO-NSAID solvent control group was used for data correction to eliminate the influence of the solvent on the results.
# After culturing for 24-48 hours, the Cell Counting Kit-8 (CCK-8) detection kit (C0037, Shanghai Beyotime Biotechnology Co., Ltd., Beyotime Biotechnology) was used to determine the cell viability. This allows for the calculation of the proliferative toxicity of anti-tumor agent on cell and the mitigating effect of NO-NSAID on proliferative toxicity. The results were statistically analyzed and plotted using GraphPad Prism 6.0 software and t test.
# [3] = 120 h, Sorafenib 80 mg/kg once a day, Days 5
# [4] = 432 h, Cabozantinib 50 mg/kg once a day, Days 18
# [5] = 432 h, Lenvatinib 100 mg/kg twice a day, Days 18
# [6] = 432 h, Nintedanib 110 mg/kg once a day, Days 18
# [7] = 432 h, Regorafenib 90 mg/kg once a day, Days 18
# [8] = Afatinib (10 μM), NO-NSAID 100 μM
# [9] = Cabozantinib (5 μM), NO-NSAID 100 μM
# [10] = Dabrafenib (10 μM), NO-NSAID 100 μM
# [11] = Everolimus (5 μM), NO-NSAID 100 μM
# [12] = Infigratinib (15 μM), NO-NSAID 100 μM
# [13] = Lapatinib (5 μM), NO-NSAID 100 μM
# [14] = Lenvatinib (10 μM), NO-NSAID 100 μM
# [15] = Olmutinib (10 μM), NO-NSAID 100 μM
# [16] = Regorafenib (5 μM), NO-NSAID 100 μM
# [17] = Selumetinib (5 μM), NO-NSAID 100 μM
# [18] = Sorafenib (5 μM), NO-NSAID 100 μM
# [19] = Sunitinib (5 μM), NO-NSAID 100 μM
smiles,measurement,setting,value
CC(C(=O)OCCCO[N+](=O)[O-])c1ccc(-c2ccccc2)c(F)c1 (stereo not drawn) [Compound A1],responders at 0.5 %,[1]; [3],42.9%
same,responders at 1 %,[1]; [3],42.9%
same,responders at 2.5 %,[1]; [3],60%
same,responders at 5 %,[1]; [3],83.3%
same,responders at 2.5 %,"[1]; 360 h, Apatinib 105 mg/kg once a day, Days 15",57.1%
same,responders at 2.5 %,"[1]; 360 h, Encorafenib 80 mg/kg once a day, Days 15",60%
same,responders at 2.5 %,"[1]; 360 h, Lapatinib 120 mg/kg twice a day, Days 15",33.3%
same,responders at 2.5 %,"[1]; 360 h, Sunitinib 120 mg/kg once a day, Days 15",57.1%
same,responders at 2.5 %,"[1]; 384 h, Fruquintinib 40 mg/kg once a day, Days 16",57.1%
same,responders at 2.5 %,"[1]; 432 h, Anlotinib 20 mg/kg once a day, Days 18",33.3%
same,responders at 2.5 %,"[1]; 432 h, Axitinib 50 mg/kg once a day, Days 18",60%
same,responders at 1 %,[1]; [4],40%
same,responders at 2.5 %,[1]; [4],33.3%
same,responders at 5 %,[1]; [4],66.7%
same,responders at 1 %,[1]; [5],28.6%
same,responders at 2.5 %,[1]; [5],57.1%
same,responders at 5 %,[1]; [5],57.1%
same,responders at 1 %,[1]; [6],33.3%
same,responders at 2.5 %,[1]; [6],66.7%
same,responders at 5 %,[1]; [6],66.7%
same,responders at 0.5 %,[1]; [7],33.3%
same,responders at 1 %,[1]; [7],50%
same,responders at 2.5 %,[1]; [7],42.9%
same,responders at 5 %,[1]; [7],80%
same,responders at 2.5 %,"[1]; 480 h, Erdafitinib 45 mg/kg once a day, Days 20",42.9%
same,responders at 2.5 %,"[1]; 480 h, Olmutinib 100 mg/kg once a day, Days 20",50%
same,NO-NSAID response rate % (average),"[2]; Afatinib (10 μM), NO-NSAID 0.1 μM",13%
same,NO-NSAID response rate % (average),"[2]; Afatinib (10 μM), NO-NSAID 1 μM",20%
same,NO-NSAID response rate % (average),[2]; [8],50%
same,NO-NSAID response rate % (average),"[2]; Afatinib (10 μM), NO-NSAID 500 μM",25%
same,NO-NSAID response rate % (average),"[2]; Cabozantinib (5 μM), NO-NSAID 0.1 μM",10%
same,NO-NSAID response rate % (average),"[2]; Cabozantinib (5 μM), NO-NSAID 1 μM",10%
same,NO-NSAID response rate % (average),[2]; [9],4%
same,NO-NSAID response rate % (average),"[2]; Cabozantinib (5 μM), NO-NSAID 500 μM",15%
same,NO-NSAID response rate % (average),"[2]; Dabrafenib (10 μM), NO-NSAID 0.1 μM",22%
same,NO-NSAID response rate % (average),"[2]; Dabrafenib (10 μM), NO-NSAID 1 μM",48%
same,NO-NSAID response rate % (average),[2]; [10],53%
same,NO-NSAID response rate % (average),"[2]; Dabrafenib (10 μM), NO-NSAID 500 μM",37%
same,NO-NSAID response rate % (average),"[2]; Everolimus (5 μM), NO-NSAID 0.1 μM",4%
same,NO-NSAID response rate % (average),"[2]; Everolimus (5 μM), NO-NSAID 1 μM",−2%
same,NO-NSAID response rate % (average),[2]; [11],62%
same,NO-NSAID response rate % (average),"[2]; Everolimus (5 μM), NO-NSAID 500 μM",20%
same,activation at 100 µM,[2]; [8],50%
same,activation at 100 µM,"[2]; Anlotinib (5 μM), NO-NSAID 100 μM",16%
same,activation at 100 µM,"[2]; Apatinib (10 μM), NO-NSAID 100 μM",43%
same,activation at 100 µM,"[2]; Axitinib (10 μM), NO-NSAID 100 μM",65%
same,activation at 100 µM,[2]; [9],4%
same,activation at 100 µM,[2]; [10],53%
same,activation at 100 µM,"[2]; Dacomitinib (5 μM), NO-NSAID 100 μM",59%
same,activation at 100 µM,"[2]; Encorafenib (5 μM), NO-NSAID 100 μM",65%
same,activation at 100 µM,"[2]; Erdafitinib (10 μM), NO-NSAID 100 μM",51%
same,activation at 100 µM,[2]; [11],62%
same,activation at 100 µM,"[2]; Famitinib (5 μM), NO-NSAID 100 μM",70%
same,activation at 100 µM,"[2]; Fruquintinib (10 μM), NO-NSAID 100 μM",23%
same,activation at 100 µM,"[2]; Gefitinib (10 μM), NO-NSAID 100 μM",30%
same,activation at 100 µM,[2]; [12],80%
same,activation at 100 µM,[2]; [13],27%
same,activation at 100 µM,[2]; [14],28%
same,activation at 100 µM,[2]; [15],37%
same,activation at 100 µM,[2]; [16],64%
same,activation at 100 µM,[2]; [17],51%
same,activation at 100 µM,[2]; [18],51%
same,activation at 100 µM,[2]; [19],11%
same,activation at 100 µM,"[2]; Vemurafenib (5 μM), NO-NSAID 100 μM",45%
same,NO-NSAID response rate % (average),"[2]; Infigratinib (15 μM), NO-NSAID 0.1 μM",23%
same,NO-NSAID response rate % (average),"[2]; Infigratinib (15 μM), NO-NSAID 1 μM",14%
same,NO-NSAID response rate % (average),[2]; [12],80%
same,NO-NSAID response rate % (average),"[2]; Infigratinib (15 μM), NO-NSAID 500 μM",25%
same,NO-NSAID response rate % (average),"[2]; Lapatinib (5 μM), NO-NSAID 0.1 μM",27%
same,NO-NSAID response rate % (average),"[2]; Lapatinib (5 μM), NO-NSAID 1 μM",23%
same,NO-NSAID response rate % (average),[2]; [13],27%
same,NO-NSAID response rate % (average),"[2]; Lapatinib (5 μM), NO-NSAID 500 μM",24%
same,NO-NSAID response rate % (average),"[2]; Lenvatinib (10 μM), NO-NSAID 0.1 μM",21%
same,NO-NSAID response rate % (average),"[2]; Lenvatinib (10 μM), NO-NSAID 1 μM",13%
same,NO-NSAID response rate % (average),[2]; [14],28%
same,NO-NSAID response rate % (average),"[2]; Lenvatinib (10 μM), NO-NSAID 500 μM",10%
same,NO-NSAID response rate % (average),"[2]; Olmutinib (10 μM), NO-NSAID 0.1 μM",25%
same,NO-NSAID response rate % (average),"[2]; Olmutinib (10 μM), NO-NSAID 1 μM",20%
same,NO-NSAID response rate % (average),[2]; [15],37%
same,NO-NSAID response rate % (average),"[2]; Olmutinib (10 μM), NO-NSAID 500 μM",31%
same,NO-NSAID response rate % (average),"[2]; Regorafenib (5 μM), NO-NSAID 0.1 μM",21%
same,NO-NSAID response rate % (average),"[2]; Regorafenib (5 μM), NO-NSAID 1 μM",27%
same,NO-NSAID response rate % (average),[2]; [16],64%
same,NO-NSAID response rate % (average),"[2]; Regorafenib (5 μM), NO-NSAID 500 μM",42%
same,NO-NSAID response rate % (average),"[2]; Selumetinib (5 μM), NO-NSAID 0.1 μM",36%
same,NO-NSAID response rate % (average),"[2]; Selumetinib (5 μM), NO-NSAID 1 μM",28%
same,NO-NSAID response rate % (average),[2]; [17],51%
same,NO-NSAID response rate % (average),"[2]; Selumetinib (5 μM), NO-NSAID 500 μM",25%
same,NO-NSAID response rate % (average),"[2]; Sorafenib (5 μM), NO-NSAID 0.1 μM",1%
same,NO-NSAID response rate % (average),"[2]; Sorafenib (5 μM), NO-NSAID 1 μM",14%
same,NO-NSAID response rate % (average),[2]; [18],51%
same,NO-NSAID response rate % (average),"[2]; Sorafenib (5 μM), NO-NSAID 500 μM",8%
same,NO-NSAID response rate % (average),"[2]; Sunitinib (5 μM), NO-NSAID 0.1 μM",19%
same,NO-NSAID response rate % (average),"[2]; Sunitinib (5 μM), NO-NSAID 1 μM",5%
same,NO-NSAID response rate % (average),[2]; [19],11%
same,NO-NSAID response rate % (average),"[2]; Sunitinib (5 μM), NO-NSAID 500 μM",29%
